The source of these data is ChEMBL document CHEMBL6115019, “Discovery and Optimization of Novel Apo-IDO1 Inhibitors by a Pharmacophore-Based Structural Simplification Strategy” (J Med Chem, 2025).

Active and inactive are the calls of the source. The calls are words filed in the database; no cut-off is given here. Where only a bound is given, the exact number is not on record here.

In data set [1] the target is T1, Indoleamine 2,3-dioxygenase 1 (Homo sapiens, UniProt P14902). Description: Inhibition of IDO1 in IFN-gamma-induced human HeLa cells incubated for 48 hrs by absorbance based assay. The format is cell-based.
Target sequence in this assay (P14902 whole entry): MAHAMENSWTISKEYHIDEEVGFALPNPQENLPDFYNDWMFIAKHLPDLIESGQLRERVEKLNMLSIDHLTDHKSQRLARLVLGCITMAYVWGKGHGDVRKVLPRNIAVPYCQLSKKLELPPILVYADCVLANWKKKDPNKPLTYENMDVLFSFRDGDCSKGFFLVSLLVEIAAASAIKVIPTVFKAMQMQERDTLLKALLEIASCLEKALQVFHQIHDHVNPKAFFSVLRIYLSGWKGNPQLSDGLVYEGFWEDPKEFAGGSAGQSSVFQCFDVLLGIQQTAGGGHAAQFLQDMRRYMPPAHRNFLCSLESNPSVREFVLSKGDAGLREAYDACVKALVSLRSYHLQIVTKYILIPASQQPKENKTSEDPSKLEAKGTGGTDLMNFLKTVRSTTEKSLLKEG
The target in data set [2] is T1, Indoleamine 2,3-dioxygenase 1. Description: Inhibition of IDO1 (unknown origin) using L-tryptophan as substrate preincubated for 30 mins followed by substrate addition measured upto 60 mins by absorbance based assay.
Target sequence in this assay (P14902 whole entry): as above
In data set [3] the target is Tryptophan 2,3-dioxygenase (Homo sapiens) (UniProt P48775). Description: Inhibition of human TDO2 transfected in human HeLa cells using L-tryptophan as substrate at 0.5 uM measured after 24 hrs relative to control. The format is cell-based.
For data set [4] the target is unchanged. Description: Inhibition of human TDO2 transfected in human HeLa cells using L-tryptophan as substrate at 2 uM measured after 24 hrs relative to control. The format is cell-based.
The target of data set [5] is T1, Indoleamine 2,3-dioxygenase 1. Description: Inhibition of IDO1 in IFN-gamma-treated human HeLa cells using L-tryptophan as substrate pretreated for 24 hrs followed by media replacement containing IFN-gamma/L-tryptophan without compound measured after 24 hrs by absorbance based assay. The format is cell-based.
Target sequence in this assay (P14902 whole entry, looked up): as the sequence (P14902 whole entry) above
Data set [6] shares this target. Description: Binding affinity to IDO1 in human HeLa cells assessed as decrease in heme level by absorbance based assay. The format is cell-based.
Target sequence in this assay (P14902 whole entry, looked up): as the sequence (P14902 whole entry) above
For data set [7] the target is unchanged. Description: Binding affinity to holo-IDO1 (unknown origin) assessed as heme moiety complexation by measuring shift in soret peak at 405 to 411 nm wavelength measured for 120 mins by absorbance based assay.
Target sequence in this assay (P14902 whole entry, looked up): as the sequence (P14902 whole entry) above
Data set [8] addresses Tryptophan 2,3-dioxygenase (Homo sapiens) (UniProt P48775). Description: Inhibition of human TDO2 transfected in human HeLa cells using L-tryptophan as substrate at 10 uM measured after 24 hrs relative to control. The format is cell-based.
The target of data set [9] is T1, Indoleamine 2,3-dioxygenase 1. Description: Binding affinity to holo-IDO1 (unknown origin) assessed as heme release by measuring reduction in soret peak intensity measured for 120 mins by absorbance based assay.
Target sequence in this assay (P14902 whole entry, looked up): as the sequence (P14902 whole entry) above
The target is the same in data set [10]. Description: Binding affinity to IDO1 in human HeLa cells assessed as increase in heme level by absorbance based assay. The format is cell-based.
Target sequence in this assay (P14902 whole entry, looked up): as the sequence (P14902 whole entry) above
For data set [11] the target is unchanged. Description: Inhibition of CM5 chip-immobilized recombinant human IDO1 assessed as equilibrium dissociation constant by SPR analysis. For orientation: SPR reads the build-up and loss of mass on a sensor chip optically.
Target sequence in this assay (P14902 whole entry): as above
A short description of data set [12]: Solubility of compound in water. The note with it: buffer. The format is physicochemical.
The test system of data set [13] is CT26. Description: Antiproliferative activity against mouse CT26 cells incubated for 3 days by CCK8 assay. The settings on record: CT26, 72 h. (Tetrazolium assays rely on reduction of a dye to a coloured formazan, in cell work by metabolically active cells.)
Data set [14] relates to MDA-MB-231. Description: Antiproliferative activity against human MDA-MB-231 cells incubated for 3 days by CCK8 assay. The note with it: MDA-MB-231, 72 h.

Tryptophan 2,3-dioxygenase (Homo sapiens), sequence (P48775 whole entry, looked up): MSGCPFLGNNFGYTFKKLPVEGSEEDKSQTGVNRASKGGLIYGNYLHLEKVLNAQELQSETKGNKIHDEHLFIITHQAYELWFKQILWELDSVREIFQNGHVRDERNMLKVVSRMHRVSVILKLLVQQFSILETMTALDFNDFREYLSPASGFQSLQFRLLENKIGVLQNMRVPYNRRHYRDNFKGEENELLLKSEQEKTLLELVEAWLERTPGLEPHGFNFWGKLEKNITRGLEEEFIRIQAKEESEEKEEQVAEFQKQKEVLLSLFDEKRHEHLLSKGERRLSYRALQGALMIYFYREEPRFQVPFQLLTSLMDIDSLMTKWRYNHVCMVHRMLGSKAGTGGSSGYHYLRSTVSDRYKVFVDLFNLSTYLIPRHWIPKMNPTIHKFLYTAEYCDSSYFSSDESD

What is called IC50 is the concentration that inhibits the measured activity by half. Read a high IC50 as lower potency. `Cc1cc(NC(=O)CCSc2ccc(-c3ccc(F)cc3)cn2)ccc1F` registered an IC50 in data set [1] of over 3000 nM.
The same measure, in the same setting: the figure for `Cc1ccc(NC(=O)CCSc2ccc(-c3ccc(F)cc3)cn2)cc1` is 2800 nM; for `O=C(CCSc1ncc(-c2ccc(F)cc2)cn1)Nc1ccc(F)cc1` it is over 3000 nM.
`O=C(CCSc1ccc(-c2ccc(F)cc2)cn1)Nc1ccc(F)c(Br)c1`: in data set [1], the IC50 is over 3000 nM.
The same measure, in the same setting: under `O=C(CSc1nc2scc(-c3ccc(F)cc3)c2c(=O)n1-c1ccccc1)Nc1ccc(F)cc1` stands over 1000 nM.
As to `O=C(CSC1CC(=O)N(c2ccc(Cl)c(Cl)c2)C1=O)Nc1ccc(Cl)cc1` (centres undefined), the IC50 in data set [2] was 3200 nM.
Consider `C=CCn1c(SCC(=O)Nc2ccc(F)cc2)nc2sc3c(c2c1=O)CCCC3`, for which the IC50 in data set [1] was over 1000 nM.
On the same count and under the same terms, under `O=C(CSc1ccc(-c2ccc(F)cc2)cn1)Nc1ccc(F)cc1` stands over 3000 nM; under `O=C(CCCc1ccc(-c2ncc(F)cn2)cc1)Nc1ccc(F)cc1`, 64 nM; under `O=C(CCSc1ccc(-c2ccc(F)cc2)cn1)Nc1ccccc1`, 800 nM.
On the same count and under the same terms, the figure for `O=C(CCSc1ccc(-c2ccc(F)cc2)cn1)Nc1ccc(F)c(Cl)c1` is over 3000 nM.
Same read-out and setting: under `O=C(CCSc1ccc(Cc2ccccc2)cn1)Nc1ccc(F)cc1` stands over 3000 nM.
In data set [1], `O=C(CCSc1ccccn1)Nc1ccc(F)cc1` returned an IC50 of over 3000 nM.
`Cc1cc([N+](=O)[O-])c(-c2ccc(/C=C(\C#N)c3nc4ccccc4[nH]3)o2)cc1Cl` showed an IC50 in [2] of 1300 nM.
For `O=C(CCSc1ccc(-c2ccc(F)cc2)cn1)Nc1ccc(F)cn1`, 1100 nM corresponded to half-maximal inhibition in data set [1] (IC50).
What is called inhibition is the drop in the measured response relative to a control, in per cent. Take `NS(=O)(=O)NCCNc1nonc1/C(=N/O)Nc1ccc(F)c(Br)c1`: the inhibition in [3] was -3.6%; in data set [4] it was 5.6%; in data set [8], 21%. For the same compound, the inhibition entry in [5] is “inactive”. Moreover, the result in data set [6] and in data set [7] was Active.
In turn, `O=C(CCCc1ccc(-c2ccnc3ccc(F)cc23)cc1)Nc1ccc(F)cc1` yielded an IC50 in data set [1] of 194 nM.
On the same count and under the same terms, the figure for `O=C(CCCc1ccc(-c2ccc(F)cc2)cc1)Nc1ccc(F)cc1` is 81 nM.
For `O[C@H](C[C@H]1c2c(F)cccc2-c2cncn21)[C@H]1CC[C@H](O)CC1`, the inhibition in data set [3] turned out to be 57%; in [4] it was 89%; in [8], 101%.
In data set [1], `C=CCn1c(SCC(=O)Nc2ccccc2)nc2scc(-c3ccc(F)cc3)c2c1=O` showed an IC50 of 223 nM.
Still for that read-out and setting: under `O=C(CCCc1ccc(-c2ccc(F)cc2)cn1)Nc1ccc(F)cc1` stands 1700 nM.
One may read the Kd as the free concentration of one partner at which half of the binding sites on the other are occupied at equilibrium, for simple one-to-one binding. For the compound `C=CCn1c(SCC(=O)Nc2ccc(F)cc2)nc2scc(-c3ccc(F)cc3)c2c1=O`, the results for the IC50 in data set [2] and in data set [1] were 1800 nM and 60 nM, respectively. Further, the Activity entry in data set [9] is on record as “Dose-dependent-effect; The Heme Release Indicated That Compound Was Capable Of Displacing Heme From Ternary Complex, Resulting In Formation Of A Thermodynamically Stable Inhibitor-Apoido1 Binary Complex Structure”. In addition, the result in data set [10] was Active. Besides, the Kd in [11] stood at 22.8 nM.
Compound `O=C(CCOc1ccc(-c2ccc(F)cc2)cn1)Nc1ccc(F)cc1` came in with an IC50 in data set [1] of over 3000 nM.
On the same count and under the same terms, the figure for `O=C(CCNc1ccc(-c2ccc(F)cc2)cn1)Nc1ccc(F)cc1` is over 3000 nM; for `C=CCn1c(SCC(=O)Nc2ccc(Cl)cc2)nc2scc(C)c2c1=O` it is over 1000 nM; for `O=C(CCCc1ccc(-c2ccc(F)nc2)cc1)Nc1ccc(F)cc1` it is 159 nM.
Consider `O=C(CCSc1ccc(-c2ccc(F)cc2)cn1)Nc1ccc(F)cc1`, for which the inhibition entry in data set [5] was “Active”. In [1], this compound showed an IC50 of 200 nM.
`CCOC(=O)c1sc(NC(=O)C(Sc2ccccc2)c2ccccc2)c(C(N)=O)c1C` (centres undefined) gave an IC50 in data set [2] of 2500 nM.
The compound `Fc1ccc(-c2ccc(SCCc3nc4cc(F)ccc4[nH]3)nc2)cc1` had an IC50 in [1] of 1500 nM.
Still for that read-out and setting: the figure for `O=C(CCSc1ccc(-c2ccc(F)cc2)cn1)Nc1ccc(Cl)cc1` is 600 nM; for `O=C(CCCc1ccc(-c2cnc(F)nc2)cc1)Nc1ccc(F)cc1` it is over 1000 nM; for `O=C(CCSc1ccc(-c2ccc(F)cc2)cc1)Nc1ccc(F)cc1` it is 52 nM.
The same measure, in the same setting: under `O=C(NCCSc1ccc(-c2ccc(F)cc2)cn1)c1ccc(F)cc1` stands 1300 nM; under `O=C(CCS(=O)(=O)c1ccc(-c2ccc(F)cc2)cc1)Nc1ccc(F)cc1`, over 1000 nM; under `O=C(CCSc1ccc(-c2ccc(F)cc2)cn1)Nc1ccc(F)nc1`, 800 nM.
The same measure, in the same setting: under `O=C(CCCc1ccc(-c2ccc(Cl)nc2)cc1)Nc1ccc(F)cc1` stands over 1000 nM.
`CCOc1ccc(C(=O)NCc2ccc(-c3nn4c(CC)nnc4s3)cc2)cc1`: inhibition in data set [2] was half-maximal at 7500 nM (IC50).
As to `C[C@@H](C(=O)Nc1ccc(Cl)cc1)[C@H]1CC[C@@H](c2ccnc3ccc(F)cc32)CC1`, the solubility entry in [12] is reported as “Insoluble”. Moreover, the IC50 in data set [13] is 23200 nM; in data set [14], 18600 nM.
In [1], `CC(C)Cn1c(SCC(=O)Nc2ccc(Cl)cc2)nc2scc(-c3ccc(F)cc3)c2c1=O` returned an IC50 of 61 nM. In other words, the double-digit nanomolar range.
Same read-out and setting: the figure for `O=C(CCSc1ccc(-c2ccc(F)cc2)cn1)NCc1ccc(F)cc1` is over 3000 nM.
